Assay results as given in patent US6022495A, “Photochromic benzopyrano-fused naphthopyrans” (Transitions Optical, Inc., priority 1998, dated 2000).

Experiments:
[1] = Visible lambda max of the activated form in polymer test squares (Varian Cary 3 UV-Visible spectrophotometer); assay type: physicochemical; conditions: activated (colored) form in test square of BPA 2EO DMA / poly(ethylene glycol) 600 dimethacrylate, 1.5×10^-3 molal
Description: (§1) Testing was done with the photochromic compounds prepared in Examples 1-11 in the following manner. A quantity of each photochromic compound calculated to yield a 1.5×10^-3 molal solution was added to a flask containing 50 grams of a monomer blend of 4 parts ethoxylated bisphenol A dimethacrylate (BPA 2EO DMA), 1 part poly(ethylene glycol) 600 dimethacrylate, and 0.033 weight percent 2,2'-azobis(2-methyl propionitrile) (AIBN). Each photochromic compound was dissolved into the monomer blend by stirring and gentle heating. After a clear solution was obtained, it was poured into a flat sheet mold having the interior dimensions of 2.2 mm×6 inches (15.24 cm)×6 inches (15.24 cm). The mold was sealed and placed in a horizontal air flow, programmable oven programmed to increase the temperature from 40° C. to 95° C. over […], hold the temperature at 95° C. for 3 hours, lower it to 60° C. over a 2 hour interval and then hold at 60° C. for 16 hours. After the mold was opened, the polymer sheet was cut using a diamond blade saw into 2 inch (5.1 centimeters) test squares.
The Δ OD/min, which represents the sensitivity of the photochromic compound's response to UV light, was measured over the first five (5) seconds of UV exposure, then expressed on a per minute basis. The saturation optical density (Δ OD@ Saturation) was taken under identical conditions as the Δ OD/min, except UV exposure was continued for 15 minutes. The lambda max (Vis) is the wavelength in nanometers (nm) in the visible spectrum at which the maximum absorption of the activated (colored) form of the photochromic compound in a test square occurs. The lambda max (Vis) wavelength was determined by testing the photochromic test square polymerizates of Part A in a Varian Cary 3 UV-Visible spectrophotometer. The Bleach Rate (T 1/2) is the time interval in seconds for the absorbance of the activated form of the photochromic compound in the test squares to reach one half the highest absorbance at room temperature (72° F., 22.20C.) after removal of the source of activating light.

[2] = Photochromic response of polymer test squares on an optical bench; assay type: physicochemical; conditions: for ΔOD @ Saturation: UV exposure continued for 15 minutes; for ΔOD @ Saturation / Sensitivity ΔOD/min: 72° F. (22.2° C.); for Sensitivity ΔOD/min: first five (5) seconds of UV exposure, expressed per minute; for Bleach Rate T 1/2: time for absorbance of activated form to reach one half the highest absorbance at room temperature (72° F.) after removal of activating light
Description: as §1
The photochromic test squares prepared in Part A were tested for photochromic response on an optical bench. Prior to testing on the optical bench, the photochromic test squares were exposed to 365 nanometer ultraviolet light for about 15 minutes to activate the photochromic compounds and then placed in a 76° C. oven for about 15 minutes to bleach or inactivate the photochromic compounds. The test squares were then cooled to room temperature, exposed to fluorescent room lighting for at least 2 hours and then kept covered for at least 2 hours prior to testing on an optical bench maintained at 72° F. (22.2° C.). The bench was fitted with a 150 watt Xenon arc lamp, a remote controlled shutter, a copper sulfate bath acting as a heat sink for the arc lamp, a Schott WG-320 nm cut-off filter which removes short wavelength radiation; neutral density filter(s) and a sample holder in which the square to be tested was inserted. The power output of the optical bench, i.e., the dosage of light that the sample lens would be exposed to, was calibrated with a photochromic test square used as a reference standard. […] The UV-A detector was placed into the sample holder and the light output was measured. Adjustments to the power output were made by increasing or decreasing the lamp wattage or by adding or removing neutral density filters in the light path.
A monitoring, collimated beam of light from a tungsten lamp was passed through the square at a small angle (approximately […]) normal to the square. After passing through the square, the light from the tungsten lamp was directed to a detector through Spectral Energy Corp. GM-200 monochromator set at the previously determined visible lambda max of the photochromic compound being measured. The output signals from the detector were processed by a radiometer.
Change in optical density (ΔOD) was determined by inserting a test square in the bleached state into the sample holder, adjusting the transmittance scale to 100%, opening the shutter from the Xenon lamp to provide ultraviolet radiation to change the test square from the bleached state to an activated (i.e., darkened) state, measuring the transmittance in the activated state, and calculating the change in optical density according to the formula: ΔOD=log(100/% Ta), where % Ta is the percent transmittance in the activated state and the logarithm is to the base 10.
The Δ OD/min, which represents the sensitivity of the photochromic compound's response to UV light, was measured over the first five (5) seconds of UV exposure, then expressed on a per minute basis. The saturation optical density (Δ OD@ Saturation) was taken under identical conditions as the Δ OD/min, except UV exposure was continued for 15 minutes. […]

Row | lambda max (Vis) [1] | ΔOD @ Saturation [2] | Sensitivity ΔOD/min [2] | Bleach Rate T 1/2 [2] | Structure (SMILES) | also measured
1 | 569 nanometers | 0.10 | 0.22 ΔOD/min | 32 s | COc1ccc(C2(c3ccc(OC)cc3)C=Cc3c(c4ccccc4c4c3oc(=O)c3cc(OC)c(OC)cc34)O2)cc1 [Compound 6B, 6,6-bis(4-methoxyphenyl)-12,13-dimethoxy-10-oxo-6,10-dihydro[2]benzopyrano[3',4':3,4]naphtho(1,2-b)pyran] | –
2 | – | – | – | – | COc1ccc(C2(c3ccc(OC)cc3)C=Cc3c4c(c5ccccc5c3O2)-c2ccccc2CO4)cc1 [Compound 2, 6,6-bis(4-methoxyphenyl)-6,10-dihydro[2]benzopyrano[3'4':3,4]naphtho(1,2-b)pyran] | lambda max (Vis) ([1]; listed as 2A): 546 nanometers; lambda max (Vis) ([1]; listed as 2B): 432 nanometers; ΔOD @ Saturation ([2]; listed as 2A): 0.22; ΔOD @ Saturation ([2]; listed as 2B): 0.27; Sensitivity ΔOD/min ([2]; listed as 2A): 0.10 ΔOD/min; Sensitivity ΔOD/min ([2]; listed as 2B): 0.12 ΔOD/min; Bleach Rate T 1/2 ([2]; listed as 2A): 116 s; Bleach Rate T 1/2 ([2]; listed as 2B): 112 s
3 | 464 nanometers | 0.29 | 0.31 ΔOD/min | 47 s | COc1ccc(C2(c3ccccc3)C=Cc3c(c4c5cc(OC)c(OC)cc5c(=O)oc4c4ccccc34)O2)cc1 (centres unmarked) [Compound 7B, 2-(4-methoxphenyl)-2-phenyl-12,13-dimethoxy-10-oxo-2,10-dihydro[2]benzopyrano[4',3':3,4]naphtho(2,1-b)pyran] | –
4 | 602 nanometers | 0.21 | 0.08 ΔOD/min | 216 s | COc1ccc(C2(c3ccccc3)C=Cc3c4c(c5ccccc5c3O2)-c2cc(OC)c(OC)cc2C(C)(C)O4)cc1 (centres unmarked) [Compound 8, 6-(4-methoxyphenyl)-6-phenyl-12,13-dimethoxy-10,10-dimethyl-6,10-dihydro[2]benzopyrano [3',4':3,4]naphtho(1,2-b)pyran] | –
5 | 466 nanometers | 0.02 | 0.12 ΔOD/min | – | O=c1oc2c3ccc4c(c3ccc2c2ccccc12)C=CC(c1ccccc1)(c1ccccc1)O4 [Compound 11, 3,3-diphenyl-8-oxo-3,8-dihydro[2]benzopyrano[3',4':5,6]naphtho(2,1-b)pyran] | –
6 | – | – | – | – | COc1ccc(C2(c3ccc(N4CCOCC4)cc3)C=Cc3c4c(c5ccccc5c3O2)-c2ccccc2C(C)(C)O4)cc1 (centres unmarked) [Compound 4, 10,10-dimethyl-6-(4-methoxyphenyl)-6-(4-morpholinophenyl)-6,10-dihydro[2]benzopyrano[3',4':3,4]naphtho(1,2-b)pyran] | lambda max (Vis) ([1]; listed as 4A): 598 nanometers; lambda max (Vis) ([1]; listed as 4B): 472 nanometers; ΔOD @ Saturation ([2]; listed as 4A): 0.23; ΔOD @ Saturation ([2]; listed as 4B): 0.19; Sensitivity ΔOD/min ([2]; listed as 4A): 0.18 ΔOD/min; Sensitivity ΔOD/min ([2]; listed as 4B): 0.12 ΔOD/min; Bleach Rate T 1/2 ([2]; listed as 4A): 68 s; Bleach Rate T 1/2 ([2]; listed as 4B): 61 s
7 | 493 nanometers | 0.14 | 0.29 ΔOD/min | 18 s | COc1ccc(C2(c3ccc(OC)cc3)C=Cc3c(c4c5ccccc5c(=O)oc4c4ccccc34)O2)cc1 [Compound 1A, 2,2-bis(4-methoxyphenyl)-10-oxo-2,10-dihydro[2]benzopyrano[4',3':3,4]naphtho(2,1-b)pyran] | –
8 | 478 nanometers | 0.12 | 0.25 ΔOD/min | 24 s | COc1ccc(C2(c3ccc(OC)cc3)C=Cc3c(c4c5ccc(OC)cc5c(=O)oc4c4ccccc34)O2)cc1 [Compound 9A, 2,2-bis(4-methoxyphenyl)-12-methoxy-10-oxo-2,10-dihydro[2]benzopyrano[4',3':3,4]naphtho(2,1-b)pyran] | –
9 | 569 nanometers | 0.22 | 0.27 ΔOD/min | 54 s | COc1ccc(C2(c3ccccc3)C=Cc3c(c4ccccc4c4c3oc(=O)c3cc(OC)c(OC)cc34)O2)cc1 (centres unmarked) [Compound 7A, 6-(4-methoxyphenyl)-6-phenyl-12,13-dimethoxy-10-oxo-6,10-dihydro[2]benzopyrano[3',4':3,4]naphtho(1,2-b)pyran] | –
10 | 598 nanometers | 0.06 | 0.13 ΔOD/min | 39 s | COc1ccc(C2(c3ccc(N4CCOCC4)cc3)C=Cc3c(c4ccccc4c4c3oc(=O)c3ccccc34)O2)cc1 (centres unmarked) [Compound 3B, 6-(4-methoxyphenyl)-6-(4-morpholinophenyl)-10-oxo-6,10-dihydro[2]benzopyrano[3',4':3,4]naphtho(1,2-b)pyran] | –
11 | 537 nanometers | 0.07 | 0.19 ΔOD/min | 24 s | COc1ccc(C2(c3ccc(OC)cc3)C=Cc3c(c4ccccc4c4c3oc(=O)c3ccccc34)O2)cc1 [Compound 1B, 6,6-bis(4-methoxyphenyl)-10-oxo-6,10-dihydro[2]benzopyrano[3',4':3,4]naphtho(1,2-b)pyran] | –
12 | 530 nanometers | 0.01 | 0.04 ΔOD/min | 3 s | COc1ccc(C2(c3ccc(N4CCOCC4)cc3)C=Cc3c(c4c5ccccc5c(=O)oc4c4ccccc34)O2)cc1 (centres unmarked) [Compound 3A, 2-(4-methoxyphenyl)-2-(4-morpholinophenyl)-10-oxo-2,10-dihydro[2]benzopyrano[4',3':3,4]naphtho(2,1-b)pyran] | –
13 | 477 nanometers | 0.13 | 0.19 ΔOD/min | 28 s | COc1ccc(C2(c3ccc(OC)cc3)C=Cc3c(c4c5cc(OC)c(OC)cc5c(=O)oc4c4ccccc34)O2)cc1 [Compound 6A, 2,2-bis(4-methoxyphenyl)-12,13-dimethoxy-10-oxo-2,10-dihydro[2]benzopyrano[4',3':3,4]naphtho(2,1-b)pyran] | –
